What all share (test): inhibition of tumour cell growth, NCI panel, 48 h
Assay [1] concerns OVCAR-4 ovarian.
Assay [2] relates to TK-10 renal.
Assay [3] deals with SN12C renal.
Assay [4] concerns SF-295 CNS.
Assay [5] relates to SK-MEL-5 melanoma.
For assay [6], the system named is UACC-62 melanoma.
The subject of assay [7] is SW-620 colon.
Assay [8] deals with MALME-3M melanoma.
Assay [9] relates to SK-MEL-28 melanoma.

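Results reflect a 48-hour exposure of cells in 96-well plates to compound at five concentrations. At the TGI there is no net growth.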 Some results are limits rather than exact numbers.

Consider `CC1C[C@H](OC(N)=O)C(C)CC1=O` (stereo not given in full), for which the TGI in [1], in [2], in [3], in [4], in [5] and in assay [6] was over 100 µM throughout. Besides, the TGI in [7] and in assay [8] was over 100 µM each time.
As to `COC1(OC)CC2C=C(S(=O)(=O)c3ccccc3)C1N(Cc1ccccc1)C2=O` (stereo not given), the TGI is over 100 µM in assay [1]; 66.4 µM in assay [2]; over 100 µM in [9]; 68.2 µM in assay [3]; over 100 µM in assay [4]; over 100 µM in assay [5]. For the same compound, the TGI in assay [6] was 58.4 µM; in [7], 76.8 µM; in assay [8], over 100 µM.
On to `CC(C)c1ccccc1NC(=O)C(=O)Cc1nc2ccccc2s1`, for which the TGI in [1], in assay [2], in assay [9], in assay [3], in assay [4] and in [5] was over 100 µM in each case. The TGI in assay [6], in assay [7] and in assay [8] was over 100 µM in each case.
As for `Brc1ccc(-c2nnc(-c3nn(-c4ccccc4)c4nc5ccccc5nc34)o2)cc1`, the TGI in assay [1] was over 100 µM; in assay [2], over 100 µM; in [9] it was over 100 µM; in assay [3], over 100 µM; in [4] it was over 100 µM; in [5], 84.5 µM. The TGI in [6] and in assay [7] was over 100 µM each time.
For `Cc1ccc(NC(=O)c2cccc([N+](=O)[O-])c2O)c([N+](=O)[O-])c1`, the TGI was 27 µM in [1]; 32 µM in assay [9]; 53.8 µM in [3]; 32.8 µM in assay [4]; 24.8 µM in [6]; 39.5 µM in [7]. The compound also displayed a TGI in assay [8] of 30.8 µM.
As to `O=C(CC1(O)C(=O)Nc2ccccc21)c1ccccc1Cl` (stereo not given), the TGI in assay [1], in assay [2], in assay [9], in [3], in assay [4] and in assay [5] was over 100 µM throughout. The TGI in assay [6], in assay [7] and in assay [8] was over 100 µM throughout.
For `CCOC(=O)C(=O)Nc1ccc(C)cc1C`, the TGI in assay [1], in assay [2], in assay [9], in assay [3], in assay [4] and in assay [5] was over 100 µM each time. In addition, the TGI in [6], in assay [7] and in [8] was over 100 µM throughout.
With `CCn1cc(/C=C/C(C)c2cn(CC)c(=O)[nH]c2=O)c(=O)[nH]c1=O` (stereo not given), the TGI in [1], in assay [2], in [9], in [3], in assay [4] and in [5] was over 100 µM throughout. Besides, the TGI in assay [6], in [7] and in assay [8] was over 100 µM each time.
With `CC1=CC(=O)CCC2(C)C1CC[C@@H]2OC=O` (stereo not given in full), the TGI in assay [1], in assay [2], in assay [9], in assay [3], in assay [4] and in assay [5] was over 100 µM throughout. Further, the TGI in [6] and in assay [7] was over 100 µM each time.
As for `N/N=C1\C(=O)N(C2CCCCC2)C(=O)C1C(=O)NC1CCCCC1` (stereo not given), the TGI in [1] was over 100 µM; in assay [9] it was over 100 µM; in [3] it was 93.6 µM; in assay [4] it was over 100 µM; in [5], over 100 µM; in assay [6] it was over 100 µM. Besides, the TGI in [7] and in [8] was over 100 µM each time.
With `CCOC(=O)N1CCc2cc(OC)c(OC)c3c2C1CC3=O` (stereo not given), the TGI in assay [1], in [2], in [3], in assay [4], in assay [5] and in assay [6] was over 100 µM in each case. The TGI in assay [7] and in assay [8] was over 100 µM each time.
Turning to `COc1ccc(/C(=N/NC(=O)NN)C(c2ccc(OC)cc2)C2(O)CNc3c(Cl)cc(Cl)cc32)cc1` (stereo not given), the TGI in assay [1], in assay [2], in assay [9], in assay [3], in assay [4] and in assay [5] was over 100 µM each time. Moreover, the TGI in assay [6], in assay [7] and in [8] was over 100 µM each time.
On to `COc1ccc(C2=NNC(=O)OC2c2ccccc2)cc1` (stereo not given), for which the TGI in assay [1], in assay [2], in [9], in [3], in assay [4] and in [6] was over 100 µM in each case. The TGI in [7] and in assay [8] was over 100 µM in each case.
Consider `Cc1cc2c(=O)n(-c3ccc(F)cc3)c(C)nc2c(C(=O)O)c1C`, for which the TGI in [1], in [2], in assay [9], in assay [3], in [4] and in assay [5] was over 100 µM throughout. For the same compound, the TGI in assay [6], in [7] and in assay [8] was over 100 µM each time.
Consider `O=C(CO)CC(=O)C(=O)Nc1nc([N+](=O)[O-])cs1`, for which the TGI in [1], in [2], in assay [9], in [3], in assay [4] and in assay [5] was over 100 µM throughout. The TGI in [6], in assay [7] and in [8] was over 100 µM throughout.
For `Cc1cc(N(CCC#N)S(C)(=O)=O)ccc1C=O`, the TGI in assay [1], in assay [9], in [3], in [4], in [5] and in assay [6] was over 100 µM throughout. For the same compound, the TGI in assay [7] and in assay [8] was over 100 µM each time.

The values are drawn from PubChem BioAssay (NCI).
